Tests used:
mouse skin = assay: In vivo delivery by intradermal injection and luciferase assay (pGL3CMV plasmid); design: species or system Balb/c×C3H F1 female mice; details: FIG. 3, OPTIMEM, 0.5:1 (w/w gemini:DNA)
Description: Plasmid pGL3CMV is a luciferase expression vector based upon pGL3 Basic, (Promega Corporation., Madison, Wis., USA), where the CMV immediate early promoter drives luciferase expression. The plasmid pGL3CMV was used in all gene expression studies in mouse skin biopsies and has been described in WO03/061636.
Gemini surfactants were mixed with plasmid DNA by drop by drop addition of the diluted gemini surfactant formulation (in OPTIMEM) to the diluted plasmid DNA formulation (in OPTIMEM) at room temperature whilst the mixture was being mixed using a Vortex mixer (Mini Vortexer, VWR). […]
Plasmid DNA was delivered into the skin of Balb/c×C3H F1 female mice. […] Groups of 8-10 animals (or 4 to 5 animals with two injection sites) were analysed for skin gene expression. […]
Skin samples were thawed to room temperature and disrupted in 500 ul of Passive Lysis Buffer™ (Promega Corporation, Madison, Wis., USA) using an IKA Labortechnic Ultra turrax T8 polytron. Luciferase enzyme activity was determined using a luciferase assay kit (Promega). […] Luciferase activity (RLU) was measured as counts per minute on the Victor 2 1420 multilabel HTS counter on the luminescence program (Wallac, Perkin Elmer). Total protein concentration was calculated by a Coomassie Plus protein assay reagent kit (Perbio) using the manufacturer's protocol. […] The absorbance was measured at 595 nm on a Molecular Devices Spectra Max 340. […]

Balb/c mice [1] = assay: Humoral responses by ELISA, antigen-specific whole IgG (HIV RNG fusion protein); assay type: in vivo; details: Example 48; intradermal delivery, FIG. 11, day 14 post-boost
Protocol: (§1) Acclimatised 6-8 week old Female Balb/c mice were maintained under general anaesthesia using an oxygen-controlled inhaled Isoflourane mask for application by intradermal injection to the pre-shaved lower back above the base of the tail. Where necessary mice were given Rimadyl (Carprofen) as an analgesic in a sub-cutaneous dose of 5 mg/Kg, diluted 1:10 and delivered at 20 μl/mouse. Injections of up to 50 μl of freshly formulated DNA with or without gemini surfactant were given via BD 0.5 ml insulin syringes with 29 g needles.
The humoral response was assessed by measuring antigen-specific whole IgG antibody levels (eg. to HIV RNG fusion protein) in the serum samples collected after primary and boost immunisation. […] The amount of bound antibody was determined after 4 further washes (as above) followed by addition of TMB substrate solution (T-8540-Sigma). After 30 minutes at 20° C. protected from light, the reaction is stopped with 1M sulphuric acid and absorbance read at 450 nm. […]
Humoral responses to RNG fusion peptide (WO03/025003), as serum whole IgG, were monitored at day 14 post-boost (FIG. 11). […]
Humoral responses were also analysed in this example. The humoral responses were measured as whole serum IgG and data were collected both after a homologous prime and boost and again after a heterologous boost with NHP Adenovirus p6GRN, see FIG. 42. […]

plasmid DNA (pdpSC18) = assay: Particle size of gemini surfactant-plasmid DNA complexes (lipoplexes) by QELS; assay type: physicochemical; details: buffers covering pH 6.5 to pH 4.5, FIG. 33
Protocol: Gemini surfactants were mixed with plasmid DNA by drop by drop addition of the diluted gemini surfactant formulation (in OPTIMEM) to the diluted plasmid DNA formulation (in OPTIMEM) at room temperature whilst the mixture was being mixed using a Vortex mixer (Mini Vortexer, VWR). The ratio of gemini surfactant to plasmid DNA was varied from 0.2:1 (w/w) to 4:1 (w/w) so that for a final volume of 50 ul per delivery, the formulation contained 10 ug of plasmid DNA with gemini surfactant at the correct ratio. Gemini: DNA mixtures or complexes were left at room temperature for 15 minutes post mixing to form and were then delivered to animals within 15 to 30 minutes. […]
(§2) The size of the particles formed by gemini surfactants and their complexes with plasmid DNA was measured by quasi-elastic light scattering (QELS) (Finsy, R., Advances in Colloid and Interface Science (1994) 52 (19 September):79-143; Gittings, M. R., and Saville, D. A., Colloids and Surfaces A: Physicochemical and Engineering Aspects (1998) 141: 111-117). Samples (50 μl) were analysed using a Brookhaven Instruments Corporation particle size analyser (BIC 90 Plus) following the manufacturer's instructions: 10 measurements, each consisting of 10 runs were taken per sample. […] The average particle size was automatically derived from the raw data by the instrument and expressed as the mean hydrodynamic diameter in nanometers (nm). […]

[2] = Particle size of gemini surfactant solutions by quasi-elastic light scattering (QELS); assay type: physicochemical; details: fresh solutions stored at 4° C., particle size at bi-weekly intervals, 10-week study, FIG. 28
Protocol: All gemini surfactants were prepared from lyophilised stocks by vortex re-suspension in pure water at a stock concentration of 1 mg/ml stored at 4° C. Gemini surfactants were diluted either in pure water or were directly diluted in Optimem®1 (GIBCO Invitrogen) for immediate use. Where gemini surfactants were formulated together with other helper lipids such as DOPE, these were co-lyophilised at a 1:1, (w/w) ratio and similarly vortex re-suspended in pure water at a stock concentration of 1 mg/ml stored at 4° C.
as §2
The colloidal properties of gemini surfactant solutions were monitored over time in order to analyse their apparent instability in greater detail. […]

Balb/c mice [3] = assay: Cellular immune responses by IFN-γ / IL2 ELISPOT after immunisation with plasmid p7313iTrng; assay type: in vivo; details: Example 48; intradermal delivery, FIGS. 5 to 10
Description: Plasmid p7313iTrng, is a vector where the CMV immediate early promoter drives the expression of a fusion antigen, RNG, consisting of parts of the HIV reverse transcriptase, nef and gag genes. The plasmid p7313iTrng was used in all immune response studies in mouse (WO03/025003).
as §1, with “Injections of up to 50 μl of freshly formulated DNA with or without gemini surfactant were given via BD 0.5 ml insulin syringes with 29 g needles.” left out
Mice were killed by cervical dislocation and spleens were collected into ice-cold PBS. […] After two washes in PBS to remove particulate matter the concentration of cells in the single cell suspension was assessed by counting in a Guava Flow Cytometer. […] After overnight culture, IFN-γ or IL2 producing cells were visualised by application of anti-murine IFN-γ-biotin or IL2-biotin labelled antibody (Pharmingen) followed by streptavidin-conjugated alkaline phosphatase and quantitated using image analysis.
Representatives of 3 classes of gemini surfactants were assessed for their ability to induce both cellular and humoral immune responses upon delivery to mouse skin through the intradermal route. […]

| SMILES | gene delivery and/or expression in mouse skin versus DNA with DMRIE-C or electroporation (mouse skin) | level of humoral immune responses versus PMED at boost (Balb/c mice [1]) | pH sensitivity of lipoplexes (particle size versus pH) (plasmid DNA (pdpSC18)) | storage time for which the solution remained stable before particle formation [2] [weeks] | level of cellular immune responses versus PMED at boost (Balb/c mice [3]) |
| --- | --- | --- | --- | --- | --- |
| CCCCCCCC/C=C\CCCCCCCC(=O)NCCCN(CCCCN(CCCNC(=O)CCCCCCCCCCCCCCCCC)C(=O)[C@H](N)CCCCN)C(=O)[C@H](N)CCCCN [GSC103 D-Lys, Oleic Acid, Stearic Acid] | exception |  |  |  |  |
| CCCCCCCC/C=C\CCCCCCCC(=O)NCCCN(CCCCN(CCCNC(=O)CCCCCCC/C=C\CCCCCCCC)C(=O)[C@@H](N)CCCCN)C(=O)[C@@H](N)CCCCN [GSC103-L-Lys] |  | comparable to those induced by PMED at boost | fluctuated with falling pH | 2 | comparable to those induced by PMED at boost |
